Reference: patent US20040048356A1, “Use of a strain of lactobacillus reducing the risk factors involved in the metabolic syndrome” (priority 2000, published 2004)

What was measured:
[1] = clinical trial, Zapolska-Downar et al. 2000; cited from earlier work
PPAR = assay: Effect of propionic acid on PPAR gene expression in vitro (semiquantitative RT-PCR in HUVEC); format: cell-based; conditions: PPAR mRNA in human endothelial cells, percent in relation to GAPDH mRNA (100%)
Procedure: Human umbilical vein endothelial cells, HUVEC, were obtained from umbilical cords by collagenase digestion as described by Jaffe et al. (Biology of Endothelial Cells, Boston, Martinus Nijhoff Publishers, 1984, p. 1-13). In brief, veins of umbilical cords were perfused with PBS to remove blood cells, filled with 0.1% collagenase (type Ia) and left for 10 minutes at 37° C. Suspended HUvEC were supplemented with PBS, centrifuged and cultured at 37° C. in gelatine-coated 25 ml flasks and 6-well tissue culture plates filled with medium 199, under humidified 5% CO2 in room air. Propionic acid was added to the culture medium in the amounts of 0.1, 1.0, and 10.0 mmol/l, and the effect of the acid on the expression of PPAR was determined. Total RNA was extracted from the cells by the method of Chomczynski using TRIZOL (Gibco BRL). After isolation the integrity of the RNA samples was checked by gel electrophoresis in 1% agarose gel stained with ethidium bromide. The concentration of total RNA was calculated after spectrophotometric measurements at 260 nm wavelength. Each RNA sample (500 ng) was incubated with 1 U of DNAse I (Boehringer Mannheim, Germany) for 15 minutes at 37° C., and subsequently DNAse I was inactivated by heating at 75° C. for 3 minutes. Such DNAse-treated RNA (500 ng) was dissolved in 20 μl of a reaction mixture containing 2.5 mM of dATP, dTTP, dCTP, and dGTP (Progmega, USA), 20 U of RNAsin (Promega, USA), 100 pM of random hexamers (Boehringer Mannheim, Germany) and 20 U of MMLV Reverse Transcriptase (Boehringer Mannheim). Incubation was carried out at 37° C. for 60 minutes; the temperature of the reaction was then raised to 94° C. for 5 minutes to inactivate the enzyme and finally dropped to 4° C. […] The intensity of the bands was densitometrically measured with the gel analysis macro supplied with NIH Image. All PPAR signals were normalised to mRNA levels of the housekeeping gene GAPDH and expressed as a ratio. Data are expressed as percent in relation to GAPDH mRNA (100%).

SMILES | HDL cholesterol levels [1] | Increase of mRNA, % (PPAR; propionic acid 0.1 mmol/l) | Increase of mRNA, % (PPAR; propionic acid 1.0 mmol/l) | Increase of mRNA, % (PPAR; propionic acid 10.0 mmol/l)
CC(C)Cc1ccc(C(C)C(=O)O)cc1 (stereo not shown) [ibuprofen] | increased |  |  | 
CCC(=O)O [propionic acid] |  | 29.3% | 47.2% | 89.7%
